According to patent US7507764B2 (Tego BioSciences Corporation, priority 2003, dated 2009):
Entries after “also recorded” stand apart in the source; their conditions may differ.

Assay: Qualitative solubility in water and organic solvents
Type: physicochemical
Details: for solubility in methanol: compared to octadecadiynyl analogues 12 and 3; for solubility in organic solvents: organic solvents like CHCl3, CH2Cl2 (and DMF)
Source text: Thus self-aggregation behavior of 3 has not been investigated. To increase the polar character and to improve the water-solubility of such a bis-biotinated derivative, the [5:1]-hexakisadduct 13 with five ethyl malonate addends instead of the five octadecadiynyl malonates was synthesized (FIG. 2). To overcome the general problem of separating the desired hexakisadducts from other adducts formed simultaneously upon the exhaustive cyclopropanation step the sequence of addition steps was reversed in this case. For this purpose the cherry-red C2v-symmetrical [5:0]-pentakisadduct 14^[14] was prepared and used as starting material. The subsequent cyclopropanation reaction with the Boc-protected spacer malonate 8 to complete the C2v-symmetrical octahedral addition pattern afforded the bright-yellow N-Boc-protected [5:1]-hexakisadduct 15 in 63% yield after FC and HPLC purification. After cleavage of the Boc-protecting groups with TFA/CH2Cl2 the bis-amino amphifullerene 16 was obtained in quantitative yield. […]
The characterization of the protected dipeptide hexakisadduct precursors 45 and 46 as well as the free dipeptide hexakisadducts 47 and 48 succeeded by IR-, UV-, ^1H and ^13C NMR and by FAB mass spectroscopy.
The synthesis of a series of mixed amphiphilic hexakisadducts of C60 with an octahedral addition pattern is now described. The new [5:1]-hexakisadduct 3 involving five non-polar long chain malonate addends and one polar addend with two biotin termini is insoluble in water. As a consequence it cannot be used for the investigation of superstructures in aqueous solution. However, it represents an attractive building block for a potential co-surfactant aided assembly to mixed micelles or liposomes. The spacer carrying the biotin termini was designed in a way that it can protrude through a layer of assembled lipid molecules such as DPPC. This in principle makes it available for targeting of micelles and liposomes via avidin mediated binding of label molecules. This is believed to be the first report of the synthesis of amphiphilic [3:3]-hexakisadducts of C60. The key for the very facile access to these aesthetically pleasing molecules is the easy synthesis of the e,e,e-trisadduct 18, which can be prepared in one step from the highly regioselective addition of cyclo-[3]-octylmalonate 17. The remaining three octahedral sites are available for the attachment of three ionic or neutral polar addends. As termini carboxy, amino and peptide moieties were used. This allows for the introduction of a tunable number of positive or negative charges within the polar groups by pH-variation. In a few cases preliminary investigations on the self-assembly using cryo-TEM and PGSE-NMR have been carried out. It has been shown that the solubility and self-assembly properties depend on the number of ionic charges and therefore on the pH value. These are very favourable opportunities for the controlled encapsulation and release of non-polar guest molecules making such amphiphilic fullerenes interesting candidates for drug delivery systems. Extensive investigations on the aggregation and inclusion properties of amphiphilic [3:3]-hexakisadducts of C60 are currently under way.

1,2-{Bis-(14-[3-{2-(2-[Aminopropoxy]-ethoxy)-ethoxy}-propyl]carbamoyl-tetradecyloxycarbonyl)-methano}-18,36:22,23:27,45:31,32:55,60-pentakis-{ethyloxycarbonyl)-methano}-1,2:18,36:22,23:27,45:31,32:55,60-dihydro[60]fullerene [compound 16]
solubility in methanol: enhanced solubility
solubility in organic solvents: appreciable solubility

1,2-{Bis-(14-[3-{2-(2-[N-Biotinyl-aminopropoxy]-ethoxy)-ethoxy}-propyl]-carbamoyltetradecyloxycarbonyl)-methano}-18,36:22,23:27,45:31,32:55,60-pentakis-{di(10,12-octadecadiynyloxycarbonyl)-methano}-1,2:18,36:22,23:27,45:31,32:55,60-dihydro[60]fullerene [compound 3]
solubility in organic solvents: Acceptable solubility
self-assembly in water: inappropriate to form self-assemblies in water
solubility in water: only soluble in the presence of a co-solvent like methanol; also recorded: water-insoluble

1,2-{Bis-(14-[3-{2-(2-[N-Biotinyl-aminopropoxy]ethoxy)-ethoxy}-propyl]-carbamoyl-tetradecyloxycarbonyl)-methano}-18,36:22,23:27,45:31,32:55,60-pentakis-{ethyloxycarbonyl)-methano}1,2:18,36:22,23:27,45:31,32:55,60-dihydro-[60]fullerene [compound 13]
solubility in methanol: enhanced solubility
solubility in organic solvents: appreciable solubility
self-assembly in water: inappropriate to form self-assemblies in water
solubility in water: water-insoluble
